Our source for the IC50 and Selectivity index values is ChEMBL document CHEMBL1143449, “Exploring the connection unit in the HDAC inhibitor pharmacophore model: novel uracil-based hydroxamates” (Bioorg Med Chem Lett, 2005).

Test [1] can be described thus: Inhibitory concentration against Histone deacetylase 1A in maize. Format: functional, Zea mays.
The next test has as its target T1, Histone deacetylase HD2 (Zea mays, UniProt Q94F81).
T1 sequence (Q94F81 whole entry): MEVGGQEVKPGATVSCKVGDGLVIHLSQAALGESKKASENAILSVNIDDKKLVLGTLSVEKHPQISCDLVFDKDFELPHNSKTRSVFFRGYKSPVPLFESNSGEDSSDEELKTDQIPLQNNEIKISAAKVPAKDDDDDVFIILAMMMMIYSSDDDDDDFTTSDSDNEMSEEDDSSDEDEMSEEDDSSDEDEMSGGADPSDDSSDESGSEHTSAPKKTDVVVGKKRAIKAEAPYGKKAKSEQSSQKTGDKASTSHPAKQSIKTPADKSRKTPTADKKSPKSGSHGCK
Kind of test: Inhibitory concentration against Histone deacetylase 2 in maize. It is filed as functional.

Test [2] can be described thus: Inhibitory concentration against Histone deacetylase 1B in maize. Format: functional, Zea mays.
Test [3] has as its system Zea mays. The test is described as follows: Selectivity for class I (HD1B) against class II (HD1A) histone deacetylases. It is filed as functional.
Test [4] has as its system Zea mays. The test is described as follows: Selectivity of for class II (HD1A) against class I (HD1B) histone deacetylases. It is filed as functional.

With `O=C(CCCCCCSc1nc(O)cc(Cc2ccccc2)n1)NO`, the IC50 – broadly, the concentration at which inhibition is half-maximal – was determined as 53 nM in test [1], 37 nM at Histone deacetylase HD2 and 76 nM in test [2].

In turn, `O=C(CCCCCCC(=O)Nc1ccccc1)NO` [VORINOSTAT] came in with a half-maximal inhibitory concentration (IC50) in test [2] of 28 nM.

As for `O=C(CCCCCSc1nc(Cc2ccccc2)cc(=O)[nH]1)NO`, the half-inhibitory concentration (IC50) in test [1] is 29 nM; against Histone deacetylase HD2, 18 nM.

Turning to `O=C(CCCCCSc1nccc(O)n1)NO`, the figures for the IC50 (in test [1]; against Histone deacetylase HD2; in test [2]) were 132 nM, 213 nM and 239 nM, respectively.

For the compound `O=C(O)[C@@H]1C[C@]2(C(=O)O)C=C[C@@H](O)[C@@H](C2)O1`, the IC50 in test [1] is 0.8 nM; against Histone deacetylase HD2, 7 nM; in test [2], 0.4 nM. In the test on Zea mays [3], this compound registered a Selectivity index of 2.

With `O=C(CCSc1nc(O)cc(Cc2ccccc2)n1)NO`, the figures for the IC50 (in test [1]; at Histone deacetylase HD2; in test [2]) were 126 nM, 38 nM and 41 nM, respectively. The same compound displayed a Selectivity index in the test with Zea mays [3] of 3.1.

Take `O=C(CC1CSc2nc(Cc3ccccc3)cc(=O)n21)NO` (stereo not drawn): the IC50 worked out at 38200 nM in test [1], 31800 nM at Histone deacetylase HD2 and 30200 nM in test [2].

Turning to `CCc1ccccc1-c1cc(O)nc(SCCCCCC(=O)NO)n1`, the IC50 in test [1] was determined as 25 nM; at Histone deacetylase HD2, 35 nM; in test [2], 48 nM. Also, the Selectivity index in the test on Zea mays [4] is 2.

`O=C(/C=C/Sc1nc(O)cc(Cc2ccccc2)n1)NO`: the IC50 in test [1] amounted to 13300 nM; against Histone deacetylase HD2, 9000 nM; in test [2], 7400 nM.

As to `O=C(CCCCCCCSc1nc(O)cc(Cc2ccccc2)n1)NO`, the IC50 turned out to be 64 nM in test [1], 61 nM on Histone deacetylase HD2 and 193 nM in test [2]. Moreover, the Selectivity index in the test on Zea mays [4] came out at 3.

In the case of `O=C(CCCCSc1nc(O)cc(Cc2ccccc2)n1)NO`, the IC50 in test [1] was determined as 181 nM; on Histone deacetylase HD2, 125 nM; in test [2], 130 nM.

As for `O=C(CCCSc1nc(Cc2ccccc2)cc(=O)[nH]1)NO`, the IC50 on Histone deacetylase HD2 was found to be 229 nM.

Consider `O=C(CCCCCSc1nc(-c2ccccc2)cc(=O)[nH]1)NO`, for which the IC50 in test [1] amounted to 6 nM; against Histone deacetylase HD2, 12 nM; in test [2], 19 nM. Besides, the Selectivity index with Zea mays [4] was 3.2.

Consider `CCCc1cc(O)nc(SCCCCCC(=O)NO)n1`, for which the values for the IC50 (in test [1]; against Histone deacetylase HD2; in test [2]) were 66 nM, 135 nM and 116 nM, respectively.

In the case of `O=C(CCCSc1nc(O)cc(Cc2ccccc2)n1)NO`, the figures for the IC50 in test [1] and in test [2] were 885 nM and 251 nM, respectively. The compound further showed a Selectivity index in the test with Zea mays [3] of 3.5.

With `Cc1cc(O)nc(SCCCCCC(=O)NO)n1`, the concentration for half-maximal inhibition (IC50) in test [1] amounted to 78 nM; against Histone deacetylase HD2, 110 nM; in test [2] it was 112 nM.
